Laboratory results reported in PMC8429728, “TNK1 is a ubiquitin-binding and 14-3-3-regulated kinase that can be targeted to block tumor growth” (Nature Communications, 2021).
Where two headings read alike, the source gives them in different places.

Legend:
Assay in all cases: biochemical
Parameters in all cases: Reaction Biology 371-kinase panel at Km ATP, per cent enzyme activity relative to DMSO, single dose in duplicate
Details in all cases: duplicate measurements, Km ATP
MRCKb/CDC42BPB = MRCKb/CDC42BPB (Homo sapiens, UniProt Q9Y5S2)
Summary of the method: (§1)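 First, kinases from a 371-member panel were exposed in vitro to 300 nM inhibitor. Next, % enzyme activity versus DMSO was computed. Finally, IC50s were derived by sigmoidal dose-response fitting with variable slope and a zero bottom constraint.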

RIPK5 = target: T1, RIPK5 (Homo sapiens, UniProt Q6XUX3)
T1 construct: gene DSTYK
T1 sequence (Q6XUX3 whole entry): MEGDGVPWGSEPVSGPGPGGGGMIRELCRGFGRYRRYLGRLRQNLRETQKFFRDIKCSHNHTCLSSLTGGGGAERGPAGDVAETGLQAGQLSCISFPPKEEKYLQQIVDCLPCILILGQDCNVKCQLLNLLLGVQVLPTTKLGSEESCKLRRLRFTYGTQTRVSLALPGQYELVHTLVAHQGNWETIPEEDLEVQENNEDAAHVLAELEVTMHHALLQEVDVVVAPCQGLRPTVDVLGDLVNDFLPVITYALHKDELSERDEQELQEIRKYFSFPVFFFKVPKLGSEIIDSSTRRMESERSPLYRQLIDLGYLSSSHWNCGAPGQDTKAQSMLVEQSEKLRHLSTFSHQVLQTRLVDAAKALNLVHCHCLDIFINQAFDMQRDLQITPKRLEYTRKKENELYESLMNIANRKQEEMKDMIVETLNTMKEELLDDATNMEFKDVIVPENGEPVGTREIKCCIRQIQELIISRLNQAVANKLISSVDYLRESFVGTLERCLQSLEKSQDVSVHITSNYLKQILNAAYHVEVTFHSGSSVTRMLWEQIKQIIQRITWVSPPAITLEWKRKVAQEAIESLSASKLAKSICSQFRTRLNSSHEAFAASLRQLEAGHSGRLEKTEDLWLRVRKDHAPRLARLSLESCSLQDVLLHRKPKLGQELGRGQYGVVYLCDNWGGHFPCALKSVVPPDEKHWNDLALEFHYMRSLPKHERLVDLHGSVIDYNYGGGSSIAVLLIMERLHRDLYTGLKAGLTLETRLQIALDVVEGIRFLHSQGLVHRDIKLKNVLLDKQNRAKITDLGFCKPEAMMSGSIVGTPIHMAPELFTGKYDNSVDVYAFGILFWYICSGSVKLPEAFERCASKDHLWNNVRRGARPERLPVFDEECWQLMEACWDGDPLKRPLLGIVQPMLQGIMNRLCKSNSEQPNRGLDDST
Summary of the method: as §1

TRKA = target: T2, TRKA (Homo sapiens, UniProt P04629)
T2 construct: gene NTRK1
Summary of the method: as §1

ARAF = target: T3, ARAF (Homo sapiens, UniProt P10398)
T3 sequence (P10398 1-606): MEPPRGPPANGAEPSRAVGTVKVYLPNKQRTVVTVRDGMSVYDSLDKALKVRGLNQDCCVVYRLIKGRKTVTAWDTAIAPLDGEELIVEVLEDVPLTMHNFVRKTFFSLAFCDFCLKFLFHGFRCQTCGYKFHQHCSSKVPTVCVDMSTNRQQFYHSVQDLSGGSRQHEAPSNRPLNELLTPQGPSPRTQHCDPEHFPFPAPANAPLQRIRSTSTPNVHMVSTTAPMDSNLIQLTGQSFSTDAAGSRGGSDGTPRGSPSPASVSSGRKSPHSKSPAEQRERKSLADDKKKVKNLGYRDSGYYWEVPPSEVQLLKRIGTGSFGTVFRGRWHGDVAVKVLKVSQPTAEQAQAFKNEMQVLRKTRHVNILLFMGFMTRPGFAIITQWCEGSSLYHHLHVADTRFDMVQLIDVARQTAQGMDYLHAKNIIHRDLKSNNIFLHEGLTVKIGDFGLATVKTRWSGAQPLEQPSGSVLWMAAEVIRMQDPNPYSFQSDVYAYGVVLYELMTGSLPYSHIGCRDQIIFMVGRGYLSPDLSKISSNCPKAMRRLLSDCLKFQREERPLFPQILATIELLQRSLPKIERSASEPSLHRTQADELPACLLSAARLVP
Summary of the method: as §1

MYLK4 = MYLK4 (Homo sapiens, UniProt Q86YV6)
Summary of the method: as §1

PLK3 = PLK3 (Homo sapiens, UniProt Q9H4B4)
Sequence of PLK3 (Q9H4B4 whole entry): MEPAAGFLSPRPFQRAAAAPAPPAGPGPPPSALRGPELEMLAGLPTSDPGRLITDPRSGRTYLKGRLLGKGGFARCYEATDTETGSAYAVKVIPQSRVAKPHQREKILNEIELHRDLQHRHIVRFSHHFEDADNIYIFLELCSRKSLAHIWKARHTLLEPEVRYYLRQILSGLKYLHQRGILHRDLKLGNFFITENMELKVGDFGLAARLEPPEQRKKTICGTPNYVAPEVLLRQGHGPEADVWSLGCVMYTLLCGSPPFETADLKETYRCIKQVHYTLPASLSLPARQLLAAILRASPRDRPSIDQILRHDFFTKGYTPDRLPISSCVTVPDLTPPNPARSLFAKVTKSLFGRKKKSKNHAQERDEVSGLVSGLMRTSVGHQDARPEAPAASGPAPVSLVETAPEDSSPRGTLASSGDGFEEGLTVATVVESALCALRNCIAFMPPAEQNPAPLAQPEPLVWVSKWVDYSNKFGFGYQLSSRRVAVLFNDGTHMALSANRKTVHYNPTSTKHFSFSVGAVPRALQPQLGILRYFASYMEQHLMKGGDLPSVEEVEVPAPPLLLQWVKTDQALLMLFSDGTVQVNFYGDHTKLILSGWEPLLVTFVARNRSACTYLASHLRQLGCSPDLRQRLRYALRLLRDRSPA
Summary of the method: as §1

CDK18/cyclin Y (PCTK3) = CDK18/cyclin Y (PCTK3) (Homo sapiens, UniProt Q07002)
Sequence of CDK18/cyclin Y (PCTK3) (Q07002 whole entry): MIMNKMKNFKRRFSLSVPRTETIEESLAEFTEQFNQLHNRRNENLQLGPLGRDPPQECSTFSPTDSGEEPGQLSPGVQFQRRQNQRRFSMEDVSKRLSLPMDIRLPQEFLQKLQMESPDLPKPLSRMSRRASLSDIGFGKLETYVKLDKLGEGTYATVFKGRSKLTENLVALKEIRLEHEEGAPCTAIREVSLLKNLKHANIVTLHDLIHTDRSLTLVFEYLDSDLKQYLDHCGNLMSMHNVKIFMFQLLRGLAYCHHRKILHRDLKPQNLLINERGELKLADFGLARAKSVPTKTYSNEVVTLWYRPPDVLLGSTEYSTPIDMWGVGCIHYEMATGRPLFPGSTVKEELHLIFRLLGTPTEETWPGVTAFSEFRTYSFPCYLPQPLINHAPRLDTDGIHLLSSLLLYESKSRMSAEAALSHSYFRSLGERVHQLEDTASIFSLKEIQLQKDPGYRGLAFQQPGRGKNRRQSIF
Sequence of CDK18/cyclin Y (PCTK3) (Q8ND76 whole entry partner): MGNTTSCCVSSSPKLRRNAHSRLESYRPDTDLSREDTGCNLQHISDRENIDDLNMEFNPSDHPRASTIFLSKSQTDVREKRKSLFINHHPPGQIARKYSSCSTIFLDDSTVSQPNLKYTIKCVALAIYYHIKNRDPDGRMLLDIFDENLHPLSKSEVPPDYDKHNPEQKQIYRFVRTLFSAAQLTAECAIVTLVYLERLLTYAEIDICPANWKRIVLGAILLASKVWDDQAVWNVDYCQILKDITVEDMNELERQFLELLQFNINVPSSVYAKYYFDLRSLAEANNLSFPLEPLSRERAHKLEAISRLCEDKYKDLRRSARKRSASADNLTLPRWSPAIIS
Summary of the method: as §1

LATS1 = LATS1 (Homo sapiens, UniProt O95835)
Summary of the method: as §1

CSK = CSK (Homo sapiens, UniProt P41240)
Summary of the method: as §1

ERK7/MAPK15 = ERK7/MAPK15 (Homo sapiens, UniProt Q8TD08)
Summary of the method: as §1

FGFR4 = FGFR4 (Homo sapiens, UniProt P22455)
Sequence of FGFR4 (P22455 whole entry): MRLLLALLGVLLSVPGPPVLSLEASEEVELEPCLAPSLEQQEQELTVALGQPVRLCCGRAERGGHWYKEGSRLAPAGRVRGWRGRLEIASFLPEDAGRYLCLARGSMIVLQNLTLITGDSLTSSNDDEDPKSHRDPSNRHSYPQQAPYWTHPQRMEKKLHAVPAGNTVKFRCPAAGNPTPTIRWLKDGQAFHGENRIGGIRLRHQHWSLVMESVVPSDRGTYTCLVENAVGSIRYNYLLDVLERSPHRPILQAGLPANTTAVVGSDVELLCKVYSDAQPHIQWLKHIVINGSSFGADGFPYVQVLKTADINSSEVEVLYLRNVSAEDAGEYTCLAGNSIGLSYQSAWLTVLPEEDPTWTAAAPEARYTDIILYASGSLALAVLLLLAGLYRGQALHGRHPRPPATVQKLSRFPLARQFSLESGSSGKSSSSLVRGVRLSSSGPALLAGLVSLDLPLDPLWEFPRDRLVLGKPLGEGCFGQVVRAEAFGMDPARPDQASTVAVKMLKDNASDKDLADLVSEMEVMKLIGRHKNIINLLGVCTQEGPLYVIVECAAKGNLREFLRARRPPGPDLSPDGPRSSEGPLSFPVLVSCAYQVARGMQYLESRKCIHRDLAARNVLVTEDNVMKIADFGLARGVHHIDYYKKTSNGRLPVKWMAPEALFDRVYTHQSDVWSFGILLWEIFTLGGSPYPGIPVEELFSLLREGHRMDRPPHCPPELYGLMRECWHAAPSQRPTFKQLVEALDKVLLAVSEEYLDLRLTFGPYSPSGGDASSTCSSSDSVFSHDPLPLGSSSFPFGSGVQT
Summary of the method: as §1

MARK2/PAR-1Ba = MARK2/PAR-1Ba (Homo sapiens, UniProt Q7KZI7)
Sequence of MARK2/PAR-1Ba (Q7KZI7 whole entry): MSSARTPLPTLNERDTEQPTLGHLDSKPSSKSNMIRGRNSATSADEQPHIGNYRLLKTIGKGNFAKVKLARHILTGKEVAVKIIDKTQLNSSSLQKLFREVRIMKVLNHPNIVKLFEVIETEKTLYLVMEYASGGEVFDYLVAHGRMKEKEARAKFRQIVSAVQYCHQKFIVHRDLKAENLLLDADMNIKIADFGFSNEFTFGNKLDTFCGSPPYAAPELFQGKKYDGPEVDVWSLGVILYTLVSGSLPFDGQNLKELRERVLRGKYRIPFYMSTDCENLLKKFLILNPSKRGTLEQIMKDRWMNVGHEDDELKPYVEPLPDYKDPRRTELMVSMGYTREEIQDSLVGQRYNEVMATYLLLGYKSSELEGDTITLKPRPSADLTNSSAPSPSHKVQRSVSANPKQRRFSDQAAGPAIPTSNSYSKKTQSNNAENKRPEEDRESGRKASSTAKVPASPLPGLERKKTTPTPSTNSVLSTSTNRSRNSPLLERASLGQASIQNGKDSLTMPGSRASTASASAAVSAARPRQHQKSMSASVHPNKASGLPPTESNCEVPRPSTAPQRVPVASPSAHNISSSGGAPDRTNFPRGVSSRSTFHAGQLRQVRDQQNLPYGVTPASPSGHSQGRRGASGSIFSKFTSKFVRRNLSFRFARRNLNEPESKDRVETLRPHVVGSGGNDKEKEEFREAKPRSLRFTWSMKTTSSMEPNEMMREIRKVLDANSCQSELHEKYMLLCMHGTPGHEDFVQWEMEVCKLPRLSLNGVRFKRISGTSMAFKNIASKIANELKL
Summary of the method: as §1

CK1d = target: T4, CK1d (Homo sapiens, UniProt P48730)
T4 construct: gene CSNK1D
T4 sequence (P48730 whole entry): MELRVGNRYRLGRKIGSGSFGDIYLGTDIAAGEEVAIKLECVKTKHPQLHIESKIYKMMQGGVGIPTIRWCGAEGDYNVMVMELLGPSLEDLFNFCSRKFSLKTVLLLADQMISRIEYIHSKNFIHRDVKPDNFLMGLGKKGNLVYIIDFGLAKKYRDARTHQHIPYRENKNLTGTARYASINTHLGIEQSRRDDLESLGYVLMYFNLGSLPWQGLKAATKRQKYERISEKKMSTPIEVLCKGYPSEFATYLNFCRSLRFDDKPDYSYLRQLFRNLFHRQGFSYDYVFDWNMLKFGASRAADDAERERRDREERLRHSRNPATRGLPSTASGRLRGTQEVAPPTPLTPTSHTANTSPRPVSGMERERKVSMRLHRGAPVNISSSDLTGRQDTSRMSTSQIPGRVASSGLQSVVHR
Summary of the method: as §1

PAK4 = PAK4 (Homo sapiens, UniProt O96013)
Summary of the method: as §1

CDK5/p35 = target: T5, CDK5/p35 (Homo sapiens, UniProt Q00535)
T5 construct: p35
Summary of the method: as §1

PAK3 = PAK3 (Homo sapiens, UniProt O75914)
Sequence of PAK3 (O75914 whole entry): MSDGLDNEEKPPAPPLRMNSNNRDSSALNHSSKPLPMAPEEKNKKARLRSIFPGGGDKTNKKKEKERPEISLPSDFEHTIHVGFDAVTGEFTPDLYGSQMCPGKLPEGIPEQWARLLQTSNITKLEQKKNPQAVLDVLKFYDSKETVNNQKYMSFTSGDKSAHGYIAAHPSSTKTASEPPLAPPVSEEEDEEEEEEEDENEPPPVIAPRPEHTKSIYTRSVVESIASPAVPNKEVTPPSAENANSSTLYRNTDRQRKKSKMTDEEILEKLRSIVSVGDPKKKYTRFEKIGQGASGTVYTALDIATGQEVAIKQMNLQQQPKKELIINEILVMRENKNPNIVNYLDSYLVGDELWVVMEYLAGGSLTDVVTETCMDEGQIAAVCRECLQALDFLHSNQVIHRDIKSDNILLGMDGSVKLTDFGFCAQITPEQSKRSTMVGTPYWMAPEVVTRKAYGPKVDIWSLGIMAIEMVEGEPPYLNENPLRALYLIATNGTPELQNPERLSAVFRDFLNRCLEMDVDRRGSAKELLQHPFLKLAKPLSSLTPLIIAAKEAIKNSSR
Summary of the method: as §1

[1] = read-out: % Enzyme Activity (relative to DMSO controls) / TP-0005801 (0.3µM) / Data 1
[2] = read-out: % Enzyme Activity (relative to DMSO controls) / TP-0005801 (0.3µM) / Data 2

remaining activity at 0.3 µM (MRCKb/CDC42BPB; [1]): 99.2% | remaining activity at 0.3 µM (MRCKb/CDC42BPB; [2]): 98% | remaining activity at 0.3 µM (RIPK5; [1]): 108% | remaining activity at 0.3 µM (RIPK5; [2]): 101% | remaining activity at 0.3 µM (TRKA; [1]): 93.3% | remaining activity at 0.3 µM (TRKA; [2]): 82.4% | remaining activity at 0.3 µM (ARAF; [1]): 88.1% | remaining activity at 0.3 µM (ARAF; [2]): 82.3% | remaining activity at 0.3 µM (MYLK4; [1]): 108% | remaining activity at 0.3 µM (MYLK4; [2]): 96.9% | remaining activity at 0.3 µM (PLK3; [1]): 109% | remaining activity at 0.3 µM (PLK3; [2]): 102% | remaining activity at 0.3 µM (CDK18/cyclin Y (PCTK3); [1]): 98% | remaining activity at 0.3 µM (CDK18/cyclin Y (PCTK3); [2]): 94.2% | remaining activity at 0.3 µM (LATS1; [1]): 103% | remaining activity at 0.3 µM (LATS1; [2]): 102% | remaining activity at 0.3 µM (CSK; [1]): 92.6% | remaining activity at 0.3 µM (CSK; [2]): 89.8% | remaining activity at 0.3 µM (FGFR4; [1]): 79.9% | remaining activity at 0.3 µM (FGFR4; [2]): 77.6% | remaining activity at 0.3 µM (MARK2/PAR-1Ba; [1]): 93.2% | remaining activity at 0.3 µM (MARK2/PAR-1Ba; [2]): 92.1% | remaining activity at 0.3 µM (CK1d; [1]): 101% | remaining activity at 0.3 µM (CK1d; [2]): 98.4% | remaining activity at 0.3 µM (PAK4; [1]): 59.4% | remaining activity at 0.3 µM (PAK4; [2]): 54.7% | remaining activity at 0.3 µM (CDK5/p35; [1]): 99.5% | remaining activity at 0.3 µM (CDK5/p35; [2]): 99.1% | remaining activity at 0.3 µM (PAK3; [1]): 99% | remaining activity at 0.3 µM (PAK3; [2]): 97.9%
SMILES: COc1cc(N2CCN(C)CC2)c(C)cc1Nc1ncc(Br)c(Nc2cccnc2N(C)C)n1 [TP-5801]
remaining activity at 0.3 µM (ERK7/MAPK15; [1]): 97.2% | remaining activity at 0.3 µM (ERK7/MAPK15; [2]): 96.4%
